We go through 1 molecule from article PMC5218480 (PLoS ONE, 2017).

In this experiment the test system is MV-4-11 cells. As to the kind of experiment: Gene expression microarray analysis (Affymetrix PrimeView) and GSEA. Type of experiment: cell-based, human. On the set-up: RFU PODN (11730768_x_at) / Fold change /veh PODN (11730768_x_at) / RFU LINC00158 (11744669_a_at) / Fold change /veh LINC00158 (11744669_a_at) / RFU DUSP10 (11751237_a_at) / Fold change /veh DUSP10 (11751237_a_at) / RFU ID3 (11757404_x_at) / Fold change /veh ID3 (11757404_x_at) / RFU PLEKHG5 (11737974_s_at) / Fold change /veh PLEKHG5 (11737974_s_at) / RFU LRRC4B (11730491_at) / Fold change /veh LRRC4B (11730491_at) / RFU GIMAP4 (11747438_a_at) / Fold change /veh GIMAP4 (11747438_a_at) / RFU KRT8 (11758183_x_at) / Fold change /veh KRT8 (11758183_x_at) / RFU CNN1 (11734310_a_at) / Fold change /veh CNN1 (11734310_a_at) / RFU VPS37D (11726825_at) / Fold change /veh VPS37D (11726825_at) / RFU C10orf10 (11716522_x_at) / Fold change /veh C10orf10 (11716522_x_at) / RFU KIR2DL2 /// KIR2DL4 /// KIR2DL5A /// KIR2DL5B /// KIR2DS1 /// KIR2DS2 /// KIR2DS3 /// KIR2DS4 /// KIR3DL3 /// KIR3DL3 /// KIR3DS1 (11738374_at) / Fold change /veh KIR2DL2 /// KIR2DL4 /// KIR2DL5A /// KIR2DL5B /// KIR2DS1 /// KIR2DS2 /// KIR2DS3 /// KIR2DS4 /// KIR3DL3 /// KIR3DL3 /// KIR3DS1 (11738374_at) / RFU C1QL1 (11718748_at) / Fold change /veh C1QL1 (11718748_at) / RFU TMPRSS4 (11747572_a_at) / Fold change /veh TMPRSS4 (11747572_a_at) / RFU HAMP (11756126_x_at) / Fold change /veh HAMP (11756126_x_at) / RFU RNFT2 (11725882_a_at) / Fold change /veh RNFT2 (11725882_a_at) / RFU NR4A2 (11747474_a_at) / Fold change /veh NR4A2 (11747474_a_at) / RFU ABCC12 (11746883_a_at) / Fold change /veh ABCC12 (11746883_a_at) / RFU TMEM136 (11760407_x_at) / Fold change /veh TMEM136 (11760407_x_at) / RFU CLDN22 /// WWC2 (11732394_at) / Fold change /veh CLDN22 /// WWC2 (11732394_at) / RFU HLA-DPB1 (11760878_x_at) / Fold change /veh HLA-DPB1 (11760878_x_at) / RFU SPINT1 (11716480_a_at) / Fold change /veh SPINT1 (11716480_a_at) / RFU GAP43 (11754022_s_at) / Fold change /veh GAP43 (11754022_s_at) / RFU A4GNT (11735810_at) / Fold change /veh A4GNT (11735810_at) / RFU PRB3 (11715151_x_at) / Fold change /veh PRB3 (11715151_x_at) / RFU TUBB4B (11761932_at) / Fold change /veh TUBB4B (11761932_at) / RFU CAPN14 (11732068_a_at) / Fold change /veh CAPN14 (11732068_a_at) / RFU TMCC2 (11721928_a_at) / Fold change /veh TMCC2 (11721928_a_at) / RFU IRGQ (11745062_a_at) / Fold change /veh IRGQ (11745062_a_at) / RFU FAM174B (11720279_a_at) / Fold change /veh FAM174B (11720279_a_at) / RFU TMPRSS4 (11748680_a_at) / Fold change /veh TMPRSS4 (11748680_a_at) / RFU FAM212B (11763350_a_at) / Fold change /veh FAM212B (11763350_a_at) / RFU PLEKHG5 (11743358_a_at) / Fold change /veh PLEKHG5 (11743358_a_at) / RFU ZSCAN30 (11745921_a_at) / Fold change /veh ZSCAN30 (11745921_a_at) / RFU CMKLR1 (11741424_a_at) / Fold change /veh CMKLR1 (11741424_a_at) / RFU LOC101060620 /// MAPK8IP1 (11723275_at) / Fold change /veh LOC101060620 /// MAPK8IP1 (11723275_at) / RFU SPTSSB (11747773_x_at) / Fold change /veh SPTSSB (11747773_x_at) / RFU PRSS12 (11739890_at) / Fold change /veh PRSS12 (11739890_at) / RFU BIN1 (11741810_x_at) / Fold change /veh BIN1 (11741810_x_at) / RFU WNT11 (11732464_a_at) / Fold change /veh WNT11 (11732464_a_at) / RFU C10orf10 (11716521_a_at) / Fold change /veh C10orf10 (11716521_a_at) / RFU C5orf56 (11738089_at) / Fold change /veh C5orf56 (11738089_at) / RFU CYB561 (11721691_x_at) / Fold change /veh CYB561 (11721691_x_at) / RFU ANKRD19P (11752326_a_at) / Fold change /veh ANKRD19P (11752326_a_at) / RFU OR2T12 /// OR2T33 /// OR2T8 (11738714_s_at) / Fold change /veh OR2T12 /// OR2T33 /// OR2T8 (11738714_s_at) / RFU VCAN (11748164_a_at) / Fold change /veh VCAN (11748164_a_at) / RFU JSRP1 (11732532_at) / Fold change /veh JSRP1 (11732532_at) / RFU KRTAP10-11 (11738290_x_at) / Fold change /veh KRTAP10-11 (11738290_x_at) / RFU MYO3A (11730013_a_at) / Fold change /veh MYO3A (11730013_a_at) / RFU EBF3 (11725865_a_at) / Fold change /veh EBF3 (11725865_a_at) / RFU CAMK2N1 (11719241_x_at) / Fold change /veh CAMK2N1 (11719241_x_at) / RFU C5orf56 (11738088_a_at) / Fold change /veh C5orf56 (11738088_a_at) / RFU OLFML3 (11715873_a_at) / Fold change /veh OLFML3 (11715873_a_at) / RFU LOC100653217 /// NTM (11731650_a_at) / Fold change /veh LOC100653217 /// NTM (11731650_a_at) / RFU MAPK11 (11762145_a_at) / Fold change /veh MAPK11 (11762145_a_at) / RFU FIZ1 (11724087_x_at) / Fold change /veh FIZ1 (11724087_x_at) / RFU OASL (11726364_x_at) / Fold change /veh OASL (11726364_x_at) / RFU SOX15 (11748057_x_at) / Fold change /veh SOX15 (11748057_x_at) / RFU CD79A (11719716_a_at) / Fold change /veh CD79A (11719716_a_at) / RFU HIST1H1D (11736915_at) / Fold change /veh HIST1H1D (11736915_at) / RFU CASKIN2 (11723855_a_at) / Fold change /veh CASKIN2 (11723855_a_at) / RFU LOC730098 (11760151_x_at) / Fold change /veh LOC730098 (11760151_x_at) / RFU OR4N2 (11742367_at) / Fold change /veh OR4N2 (11742367_at) / RFU PRRT2 (11749266_a_at) / Fold change /veh PRRT2 (11749266_a_at) / RFU SNX32 (11753110_a_at) / Fold change /veh SNX32 (11753110_a_at) / RFU CDHR5 (11726645_a_at) / Fold change /veh CDHR5 (11726645_a_at) / RFU RCAN1 (11760418_a_at) / Fold change /veh RCAN1 (11760418_a_at) / RFU FAM167A (11723789_a_at) / Fold change /veh FAM167A (11723789_a_at) / RFU FAM26E (11764081_at) / Fold change /veh FAM26E (11764081_at) / RFU ISYNA1 (11749810_s_at) / Fold change /veh ISYNA1 (11749810_s_at) / RFU ACY1 (11761880_at) / Fold change /veh ACY1 (11761880_at) / RFU 11764098_at / Fold change /veh 11764098_at / RFU SAMD14 (11745864_x_at) / Fold change /veh SAMD14 (11745864_x_at) / RFU NPB (11741838_a_at) / Fold change /veh NPB (11741838_a_at) / RFU TMPRSS6 (11731388_a_at) / Fold change /veh TMPRSS6 (11731388_a_at) / RFU KRTAP10-2 (11738614_at) / Fold change /veh KRTAP10-2 (11738614_at) / RFU ARHGAP8 /// PRR5-ARHGAP8 (11727945_x_at) / Fold change /veh ARHGAP8 /// PRR5-ARHGAP8 (11727945_x_at) / RFU KRTAP5-7 /// NADSYN1 (11734609_at) / Fold change /veh KRTAP5-7 /// NADSYN1 (11734609_at) / RFU RASL12 (11751679_a_at) / Fold change /veh RASL12 (11751679_a_at) / RFU CDKN2B (11736163_a_at) / Fold change /veh CDKN2B (11736163_a_at) / RFU PRF1 (11729649_at) / Fold change /veh PRF1 (11729649_at) / RFU, ZNF638 /// ZNF638-IT1 / Fold change vs veh, ZNF638 /// ZNF638-IT1 / RFU, PANK3 / Fold change vs veh, PANK3 / RFU, SH3YL1 / Fold change vs veh, SH3YL1 / RFU, ZEB2 / Fold change vs veh, ZEB2 / RFU, NRIP1 / Fold change vs veh, NRIP1 / RFU, PTTG1IP / Fold change vs veh, PTTG1IP / RFU, CAPN2 / Fold change vs veh, CAPN2 / RFU, MED14 / Fold change vs veh, MED14 / RFU, SNORA58 / Fold change vs veh, SNORA58 / RFU, C1orf63 / Fold change vs veh, C1orf63 / RFU, LRRFIP1 / Fold change vs veh, LRRFIP1 / RFU, NDUFAF7 / Fold change vs veh, NDUFAF7 / RFU, SLC12A2 / Fold change vs veh, SLC12A2 / RFU, IBTK / Fold change vs veh, IBTK / RFU, ESF1 / Fold change vs veh, ESF1 / Fold change vs veh, TMEM50B / RFU, TAOK1 / Fold change vs veh, TAOK1 / RFU, ACBD3 / Fold change vs veh, ACBD3 / RFU, TMA16 / Fold change vs veh, TMA16 / RFU, RWDD3 / Fold change vs veh, RWDD3 / RFU, BCAT1 / Fold change vs veh, BCAT1 / RFU, EDEM3 / Fold change vs veh, EDEM3 / RFU, TMEM33 / Fold change vs veh, TMEM33 / RFU, WDR75 / Fold change vs veh, WDR75 / RFU, AHCTF1 / Fold change vs veh, AHCTF1 / RFU, TFRC / Fold change vs veh, TFRC / RFU, ZDHHC17 / Fold change vs veh, ZDHHC17 / RFU, NOM1 / Fold change vs veh, NOM1 / RFU, ARL8B / Fold change vs veh, ARL8B / RFU, ZBTB11 / Fold change vs veh, ZBTB11 / RFU, TAMM41 / Fold change vs veh, TAMM41 / RFU, KIAA1704 /// LOC100996395 / Fold change vs veh, KIAA1704 /// LOC100996395 / RFU, ING1 / Fold change vs veh, ING1 / RFU, TRMT61B / Fold change vs veh, TRMT61B / RFU, FUBP3 / Fold change vs veh, FUBP3 / RFU, TP53 / Fold change vs veh, TP53 / RFU, TNKS2 / Fold change vs veh, TNKS2 / RFU, ZFP14 / Fold change vs veh, ZFP14 / RFU, ACTR2 / Fold change vs veh, ACTR2 / RFU, PPP3R1 / Fold change vs veh, PPP3R1 / RFU, PIK3R1 / Fold change vs veh, PIK3R1 / RFU, HNRNPA1 / Fold change vs veh, HNRNPA1 / RFU, RNF170 / Fold change vs veh, RNF170 / RFU, ZNF28 / Fold change vs veh, ZNF28 / RFU, RNGTT / Fold change vs veh, RNGTT / RFU, OGT / Fold change vs veh, OGT / RFU, BRD1 / Fold change vs veh, BRD1 / RFU, MARS / Fold change vs veh, MARS / RFU, ZNF655 / Fold change vs veh, ZNF655 / RFU, FAHD1 / Fold change vs veh, FAHD1 / RFU, BDP1 / Fold change vs veh, BDP1 / RFU, LRRCC1 / Fold change vs veh, LRRCC1 / RFU, ARID1A / Fold change vs veh, ARID1A / RFU, ZNF146 / Fold change vs veh, ZNF146 / RFU, ZNF330 / Fold change vs veh, ZNF330 / RFU, GPN3 / Fold change vs veh, GPN3 / RFU, C9orf123 / Fold change vs veh, C9orf123 / RFU, N4BP2L2 / Fold change vs veh, N4BP2L2 / RFU, ARFIP1 / Fold change vs veh, ARFIP1 / RFU, FAM179B / Fold change vs veh, FAM179B / RFU, BCL10 / Fold change vs veh, BCL10 / RFU, UHRF1BP1L / Fold change vs veh, UHRF1BP1L / RFU, BET1 / Fold change vs veh, BET1 / RFU, CNOT2 / Fold change vs veh, CNOT2 / RFU, ZNF268 / Fold change vs veh, ZNF268 / Fold change vs veh, ZNF507 / RFU, DGCR2 / Fold change vs veh, DGCR2 / RFU, WDSUB1 / Fold change vs veh, WDSUB1 / Fold change vs veh, HSP90B1 /// MIR3652 / RFU, ADSS / Fold change vs veh, ADSS / RFU, GK / Fold change vs veh, GK / RFU, ZNF148 / Fold change vs veh, ZNF148 / RFU, TAF9 / Fold change vs veh, TAF9 / RFU, SLC1A5 / Fold change vs veh, SLC1A5 / RFU, SLMO2 / Fold change vs veh, SLMO2 / RFU, ABCC4 / Fold change vs veh, ABCC4 / RFU, LOC101060439 /// RAP1B / Fold change vs veh, LOC101060439 /// RAP1B / RFU, RFX7 / Fold change vs veh, RFX7 / RFU, GTPBP10 / Fold change vs veh, GTPBP10 / RFU, CNEP1R1 / Fold change vs veh, CNEP1R1 / RFU, BIVM-ERCC5 /// ERCC5 / Fold change vs veh, BIVM-ERCC5 /// ERCC5 / RFU, ILF3 / Fold change vs veh, ILF3 / RFU 11762660_at / Fold change /veh 11762660_at / RFU VCAN (11757783_s_at) / Fold change /veh VCAN (11757783_s_at) / RFU DDX43 (11728927_at) / Fold change /veh DDX43 (11728927_at) / RFU KRT8 (11758188_x_at) / Fold change /veh KRT8 (11758188_x_at) / RFU NKD1 (11759106_at) / Fold change /veh NKD1 (11759106_at) / RFU SRD5A1 (11742802_a_at) / Fold change /veh SRD5A1 (11742802_a_at) / RFU TPSAB1 /// TPSB2 (11721975_s_at) / Fold change /veh TPSAB1 /// TPSB2 (11721975_s_at) / RFU GSTM3 (11746129_a_at) / Fold change /veh GSTM3 (11746129_a_at) / RFU IL23R (11737362_x_at) / Fold change /veh IL23R (11737362_x_at) / RFU TMEM51 (11727254_a_at) / Fold change /veh TMEM51 (11727254_a_at) / RFU PIWIL2 (11732686_x_at) / Fold change /veh PIWIL2 (11732686_x_at) / RFU ORM1 (11744905_x_at) / Fold change /veh ORM1 (11744905_x_at) / RFU CCDC152 (11743942_at) / Fold change /veh CCDC152 (11743942_at) / RFU ECM1 (11717891_a_at) / Fold change /veh ECM1 (11717891_a_at) / RFU IL23R (11748794_a_at) / Fold change /veh IL23R (11748794_a_at) / RFU TNFAIP8L3 (11732012_x_at) / Fold change /veh TNFAIP8L3 (11732012_x_at) / RFU MBOAT4 (11741988_at) / Fold change /veh MBOAT4 (11741988_at) / RFU 11764193_at / Fold change /veh 11764193_at / RFU TMEM53 (11763286_at) / Fold change /veh TMEM53 (11763286_at) / RFU MAGEB2 (11727129_at) / Fold change /veh MAGEB2 (11727129_at) / RFU TMEM200A (11744735_a_at) / Fold change /veh TMEM200A (11744735_a_at) / RFU CCDC152 (11751479_a_at) / Fold change /veh CCDC152 (11751479_a_at) / RFU FAM211A (11726209_a_at) / Fold change /veh FAM211A (11726209_a_at) / RFU RGS16 (11746705_a_at) / Fold change /veh RGS16 (11746705_a_at) / RFU VCAN (11755009_s_at) / Fold change /veh VCAN (11755009_s_at) / RFU RHOB (11743442_s_at) / Fold change /veh RHOB (11743442_s_at) / RFU RGS16 (11720943_a_at) / Fold change /veh RGS16 (11720943_a_at) / RFU RGS16 (11720944_at) / Fold change /veh RGS16 (11720944_at) / RFU, VPS4B / Fold change vs veh, VPS4B / RFU, CREB1 / Fold change vs veh, CREB1 / RFU, DNAJC13 / Fold change vs veh, DNAJC13 / RFU, GNAQ / Fold change vs veh, GNAQ / RFU, CDK5R1 / Fold change vs veh, CDK5R1 / RFU, ZRANB3 / Fold change vs veh, ZRANB3 / RFU, CUL4A / Fold change vs veh, CUL4A / RFU, CCNY / Fold change vs veh, CCNY / RFU, UFL1 / Fold change vs veh, UFL1 / RFU, COG3 / Fold change vs veh, COG3 / RFU, DIAPH2 / Fold change vs veh, DIAPH2 / RFU, SKA2 / Fold change vs veh, SKA2 / RFU, AFF3 / Fold change vs veh, AFF3 / RFU, LMF1 / Fold change vs veh, LMF1 / RFU, IPO11 / Fold change vs veh, IPO11 / RFU, DFFB / Fold change vs veh, DFFB / RFU, FOXP1 / Fold change vs veh, FOXP1 / RFU, CARD8 / Fold change vs veh, CARD8 / RFU, STRN3 / Fold change vs veh, STRN3 / RFU, ADK / Fold change vs veh, ADK / RFU, RASSF2 / Fold change vs veh, RASSF2 / RFU, WIPF1 / Fold change vs veh, WIPF1 / RFU, LARP1B / Fold change vs veh, LARP1B / RFU, RASA1 / Fold change vs veh, RASA1 / RFU, RB1 / Fold change vs veh, RB1 / RFU, PPFIA1 / Fold change vs veh, PPFIA1 / RFU, MAT2A / Fold change vs veh, MAT2A / RFU, CCT5 / Fold change vs veh, CCT5 / RFU, WDR92 / Fold change vs veh, WDR92 / RFU, CUX1 / Fold change vs veh, CUX1 / RFU, TTC7A / Fold change vs veh, TTC7A / RFU, TMEM135 / Fold change vs veh, TMEM135 / RFU, DEPTOR / Fold change vs veh, DEPTOR / RFU, CPM / Fold change vs veh, CPM / RFU, DNAJB6 / Fold change vs veh, DNAJB6 / RFU, CACNA2D3 / Fold change vs veh, CACNA2D3 / RFU, DTX4 / Fold change vs veh, DTX4 / RFU, TFCP2 / Fold change vs veh, TFCP2 / RFU, GMCL1 /// GMCL1P1 / Fold change vs veh, GMCL1 /// GMCL1P1 / RFU, AEBP2 / Fold change vs veh, AEBP2 / RFU, SNHG1 /// SNORD22 /// SNORD25 /// SNORD26 /// SNORD27 /// SNORD28 /// SNORD29 /// SNORD31 / Fold change vs veh, SNHG1 /// SNORD22 /// SNORD25 /// SNORD26 /// SNORD27 /// SNORD28 /// SNORD29 /// SNORD31 / Fold change (Aza/veh), C12orf56 (ProbeSet 11735607_a_at) / Fold change (ACY-1035/veh), C12orf56 (ProbeSet 11735607_a_at) / Fold change (Aza/veh), FGFR1OP (ProbeSet 11751329_s_at) / Fold change (ACY-1035/veh), FGFR1OP (ProbeSet 11751329_s_at) / Fold change (Aza/veh), VPS36 (ProbeSet 11739960_a_at) / Fold change (ACY-1035/veh), VPS36 (ProbeSet 11739960_a_at) / RFU SYPL1 (11715823_x_at) / Fold change /veh SYPL1 (11715823_x_at) / RFU IGFBP7 (11715501_s_at) / Fold change /veh IGFBP7 (11715501_s_at) / RFU REEP3 (11722064_at) / Fold change /veh REEP3 (11722064_at) / RFU IGLL1 (11728026_x_at) / Fold change /veh IGLL1 (11728026_x_at): dose or concentration left out as unconfirmed. Particulars: MV-4-11 cells, 48 hours.

Turning to `Nc1ccc(-c2cccs2)cc1NC(=O)c1ccc2c(c1)cc(C1CC1)n2CCN1CCOCC1` [ACY-1035], the “Fold change /veh LRRC4B (11730491_at)” value amounted to 1.07.
